Laboratory results reported in article PMC10038264, “A new family of glutamate-gated chloride channels in parasitic sea louse Caligus rogercresseyi: A subunit refractory to activation by ivermectin is dominant in heteromeric assemblies” (PLOS Pathogens, 2023).

What was measured:
DmGluClα = tested on: DmGluClα; design: method as in PMID 7935817, PMID 8702744, PMID 25994631; details: read-out: EC50 glutamate; cited from earlier work
CrGluCl-B Y361F mutant = experiment: Voltage-clamp of oocytes expressing CrGluCl-B Y361F mutant; format: cell-based, Caligus rogercresseyi; details: 1 μM ivermectin, one-sample t-test
Text: (§1) To identify putative GluCl subunits, we queried the NCBI Transcriptome Shotgun Assembly Sequence (TSA) Database for “glutamate-gated chloride channel Caligus”. The obtained sequences were translated and BLASTed (tBLASTn) against the C. rogercresseyi genome (WGS, BioProject ID 280098, NCBI) and against transcripts of L. salmonis database (https://licebase.org/). Primers for each of the putative new subunit found were designed to span the full length of the open reading frame (ORF) for each of them (B-E) (S1 Table, and arrows in Fig 1). Complete cDNAs were generated by RT-PCR from adult C. rogercresseyi samples from which putative full-length peptide sequences of CrGluCl-B, CrGluCl-C, CrGluCl-D and CrGluCl-E were obtained. Each PCR product was cloned in pGEM-T easy vector and sequenced. […]
(§2) Current measurements at controlled membrane potentials (voltage-clamp experiments) were performed using two intracellular microelectrodes in defolliculated Xenopus oocytes previously microinjected with 20 ng of cRNA. […] The oocytes were recorded in a chamber (Model RC-1Z, Warner Instrumenst, USA) under continuous superfusion. […] Currents were recorded continuously during the experiments without interruptions for solution changes. […] The signal filtered at 1 kHz was acquired with a Digidata 1440A Analog-to-Digital Converter and analyzed with Axon pClamp 10.6 software. […]

CrGluCl-B Q279E mutant = experiment: Voltage-clamp of oocytes expressing CrGluCl-B Q279E mutant; format: cell-based, Caligus rogercresseyi; details: 1 μM ivermectin, one-sample t-test
Text: as §1, §2

[1] = tested on: coexpressed CrGluCl-D:CrGluCl-B; experiment: Voltage-clamp of oocytes coexpressing CrGluCl-D and CrGluCl-B; format: cell-based, Caligus rogercresseyi; details: B:D ratio 1:1
Procedure: (§3) Adult female Xenopus laevis frogs were anaesthetized by immersion in a1g/L solution tricaine (Ethyl 3-aminobenzoate methanesulfonate, Sigma) buffered to pH 7 with NaHCO3. Surgery was performed 30–40 min later, once the frog was completely anaesthetized judging by loss of reflexes. Ovarian lobes were removed through 1 cm abdominal incision and then kept at 16°C in Barth’s modified solution containing (in mM): 88 NaCl, 1 KCl, 0.4 CaCl2, 0.3 Ca (NO3)2, 0.8 MgSO4, 2.4 NaHCO3, 5 Hepes, 2.5 sodium pyruvate, 100 μg/ml gentamicin sulfate, 100 U/ml penicillin, 100 μg/ml streptomycin, 250 μg/ml amphotericin B, 0.22μm filtered and adjusted to pH 7.5 with Tris-Base. Osmolarity was brought to 220 mOsm with saccharose. […]
as §2

CrGluCl-B Q327T mutant = experiment: Voltage-clamp of oocytes expressing CrGluCl-B Q327T mutant; format: cell-based, Caligus rogercresseyi; details: 1 μM ivermectin, ANOVA P<0.05
Text: as §1, §2

[2] = tested on: coexpressed CrGluCl-D:CrGluCl-A; experiment: Voltage-clamp of oocytes coinjected with CrGluCl-D and CrGluCl-A; format: cell-based, Caligus rogercresseyi; details: D:A ratio 1:1
Procedure: as §3, §2

Row | Molecule | EC50 (DmGluClα) | effect of ivermectin on current (CrGluCl-B Y361F mutant) | effect of ivermectin on current (CrGluCl-B Q279E mutant) | nH (ivermectin) [1] | EC50 ([1]; read-out: EC50 ivermectin (Iver response to activation)) | effect of ivermectin on current compared with WT (CrGluCl-B Q327T mutant) | Iver response to activation [2]
1 | N[C@@H](CCC(=O)O)C(=O)O [glutamate, L-glutamate] | 23 µM | – | – | – | – | – | –
2 | ivermectin | – | small but significant effects | small but significant effects | 2.6 ± 1.1 | 0.278 ± 0.053 µM | significantly greater | Sensitive
